Data as given in PubChem BioAssay (NCI).
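Values below derive from 48-hour exposures of cells grown in 96-well plates, with endpoints linearly interpolated between the two concentrations bracketing the appropriate inhibition level. TGI: total growth inhibition.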

Columns and labels:
Experiment in all cases: growth of human tumour cells (NCI), 48 h
786-0 renal = system: 786-0 renal
A549 NSCLC = system: A549 NSCLC
ACHN renal = system: ACHN renal
BT-549 breast = system: BT-549 breast
CAKI-1 renal = system: CAKI-1 renal
COLO 205 colon = system: COLO 205 colon
EKVX NSCLC = system: EKVX NSCLC
HCC-2998 colon = system: HCC-2998 colon
HCT-116 colon = system: HCT-116 colon
HCT-15 colon = system: HCT-15 colon
HOP-62 NSCLC = system: HOP-62 NSCLC
HOP-92 NSCLC = system: HOP-92 NSCLC
HS 578T breast = system: HS 578T breast
HT29 colon = system: HT29 colon
IGROV1 ovarian = system: IGROV1 ovarian
K-562 leukemia = system: K-562 leukemia
KM12 colon = system: KM12 colon
LOX IMVI melanoma = system: LOX IMVI melanoma
M14 melanoma = system: M14 melanoma
MALME-3M melanoma = system: MALME-3M melanoma
MCF7 breast = system: MCF7 breast
MDA-MB-231 breast = system: MDA-MB-231 breast
MDA-MB-435 = system: MDA-MB-435
MDA-N = system: MDA-N
MOLT-4 leukemia = system: MOLT-4 leukemia
NCI-H226 lung = system: NCI-H226 lung
NCI-H23 lung = system: NCI-H23 lung
NCI-H460 lung = system: NCI-H460 lung
NCI-H522 lung = system: NCI-H522 lung
NCI/ADR-RES ovarian = system: NCI/ADR-RES ovarian
OVCAR-4 ovarian = system: OVCAR-4 ovarian
OVCAR-5 ovarian = system: OVCAR-5 ovarian
OVCAR-8 ovarian = system: OVCAR-8 ovarian
PC-3 prostate = system: PC-3 prostate
RPMI-8226 leukemia = system: RPMI-8226 leukemia
RXF 393 renal = system: RXF 393 renal
SF-268 CNS = system: SF-268 CNS
SF-295 CNS = system: SF-295 CNS
SF-539 CNS = system: SF-539 CNS
SK-MEL-2 melanoma = system: SK-MEL-2 melanoma
SK-MEL-28 melanoma = system: SK-MEL-28 melanoma
SK-MEL-5 melanoma = system: SK-MEL-5 melanoma
SK-OV-3 ovarian = system: SK-OV-3 ovarian
SN12C renal = system: SN12C renal
SNB-19 CNS = system: SNB-19 CNS
SNB-75 CNS = system: SNB-75 CNS
SR leukemia = system: SR leukemia
SW-620 colon = system: SW-620 colon
T-47D breast = system: T-47D breast
TK-10 renal = system: TK-10 renal
U251 CNS = system: U251 CNS
UACC-257 melanoma = system: UACC-257 melanoma
UACC-62 melanoma = system: UACC-62 melanoma
UO-31 renal = system: UO-31 renal
A498 renal = system: A498 renal
CCRF-CEM leukemia = system: CCRF-CEM leukemia
DU-145 prostate = system: DU-145 prostate
HL-60(TB) leukemia = system: HL-60(TB) leukemia
OVCAR-3 ovarian = system: OVCAR-3 ovarian

## C=CCOC(=O)C[C@H](NC(=O)[C@H](Cc1ccc(O)cc1)NCC(F)(F)F)C(=O)OCC=C
786-0 renal
  TGI: > 100 µM
A549 NSCLC
  TGI: > 100 µM
ACHN renal
  TGI: > 100 µM
BT-549 breast
  TGI: > 100 µM
CAKI-1 renal
  TGI: > 100 µM
COLO 205 colon
  TGI: > 100 µM
EKVX NSCLC
  TGI: > 100 µM
HCC-2998 colon
  TGI: > 100 µM
HCT-116 colon
  TGI: > 100 µM
HCT-15 colon
  TGI: > 100 µM
HOP-62 NSCLC
  TGI: > 100 µM
HOP-92 NSCLC
  TGI: > 100 µM
HS 578T breast
  TGI: > 100 µM
HT29 colon
  TGI: > 100 µM
IGROV1 ovarian
  TGI: > 100 µM
K-562 leukemia
  TGI: > 100 µM
KM12 colon
  TGI: > 100 µM
LOX IMVI melanoma
  TGI: > 100 µM
M14 melanoma
  TGI: > 100 µM
MALME-3M melanoma
  TGI: 52.7 µM
MCF7 breast
  TGI: > 100 µM
MDA-MB-231 breast
  TGI: > 100 µM
MDA-MB-435
  TGI: > 100 µM
MDA-N
  TGI: > 100 µM
MOLT-4 leukemia
  TGI: 60.1 µM
NCI-H226 lung
  TGI: > 100 µM
NCI-H23 lung
  TGI: > 100 µM
NCI-H460 lung
  TGI: > 100 µM
NCI-H522 lung
  TGI: 68.9 µM
NCI/ADR-RES ovarian
  TGI: > 100 µM
OVCAR-4 ovarian
  TGI: > 100 µM
OVCAR-5 ovarian
  TGI: > 100 µM
OVCAR-8 ovarian
  TGI: > 100 µM
PC-3 prostate
  TGI: > 100 µM
RPMI-8226 leukemia
  TGI: > 100 µM
RXF 393 renal
  TGI: > 100 µM
SF-268 CNS
  TGI: > 100 µM
SF-295 CNS
  TGI: > 100 µM
SF-539 CNS
  TGI: > 100 µM
SK-MEL-2 melanoma
  TGI: 46.1 µM
SK-MEL-28 melanoma
  TGI: 44.5 µM
SK-MEL-5 melanoma
  TGI: 97.5 µM
SK-OV-3 ovarian
  TGI: > 100 µM
SN12C renal
  TGI: > 100 µM
SNB-19 CNS
  TGI: > 100 µM
SNB-75 CNS
  TGI: > 100 µM
SR leukemia
  TGI: > 100 µM
SW-620 colon
  TGI: > 100 µM
T-47D breast
  TGI: 58.1 µM
TK-10 renal
  TGI: > 100 µM
U251 CNS
  TGI: > 100 µM
UACC-257 melanoma
  TGI: 44.2 µM
UACC-62 melanoma
  TGI: > 100 µM
UO-31 renal
  TGI: > 100 µM

## C=C1C(NC)CCC23CC24CCC2(C)C(C(C)=O)C(O)CC2(C)C4CCC13 (stereo not given)
786-0 renal
  TGI: > 100 µM
A498 renal
  TGI: > 100 µM
A549 NSCLC
  TGI: > 100 µM
ACHN renal
  TGI: > 100 µM
BT-549 breast
  TGI: > 100 µM
CAKI-1 renal
  TGI: > 100 µM
CCRF-CEM leukemia
  TGI: > 100 µM
COLO 205 colon
  TGI: > 100 µM
DU-145 prostate
  TGI: > 100 µM
EKVX NSCLC
  TGI: > 100 µM
HCC-2998 colon
  TGI: > 100 µM
HCT-116 colon
  TGI: > 100 µM
HCT-15 colon
  TGI: > 100 µM
HL-60(TB) leukemia
  TGI: > 100 µM
HOP-92 NSCLC
  TGI: > 100 µM
HS 578T breast
  TGI: > 100 µM
HT29 colon
  TGI: > 100 µM
IGROV1 ovarian
  TGI: > 100 µM
K-562 leukemia
  TGI: > 100 µM
KM12 colon
  TGI: > 100 µM
LOX IMVI melanoma
  TGI: > 100 µM
M14 melanoma
  TGI: > 100 µM
MALME-3M melanoma
  TGI: > 100 µM
MCF7 breast
  TGI: > 100 µM
MDA-MB-231 breast
  TGI: > 100 µM
MDA-MB-435
  TGI: > 100 µM
MDA-N
  TGI: > 100 µM
MOLT-4 leukemia
  TGI: > 100 µM
NCI-H226 lung
  TGI: > 100 µM
NCI-H23 lung
  TGI: > 100 µM
NCI-H460 lung
  TGI: > 100 µM
NCI-H522 lung
  TGI: > 100 µM
NCI/ADR-RES ovarian
  TGI: > 100 µM
OVCAR-3 ovarian
  TGI: > 100 µM
OVCAR-4 ovarian
  TGI: > 100 µM
OVCAR-5 ovarian
  TGI: > 100 µM
OVCAR-8 ovarian
  TGI: > 100 µM
PC-3 prostate
  TGI: > 100 µM
RPMI-8226 leukemia
  TGI: > 100 µM
SF-268 CNS
  TGI: > 100 µM
SF-295 CNS
  TGI: 82.5 µM
SF-539 CNS
  TGI: > 100 µM
SK-MEL-2 melanoma
  TGI: > 100 µM
SK-MEL-28 melanoma
  TGI: > 100 µM
SK-MEL-5 melanoma
  TGI: > 100 µM
SK-OV-3 ovarian
  TGI: > 100 µM
SN12C renal
  TGI: > 100 µM
SNB-19 CNS
  TGI: > 100 µM
SNB-75 CNS
  TGI: > 100 µM
SW-620 colon
  TGI: > 100 µM
T-47D breast
  TGI: > 100 µM
TK-10 renal
  TGI: > 100 µM
U251 CNS
  TGI: > 100 µM
UACC-257 melanoma
  TGI: > 100 µM
UACC-62 melanoma
  TGI: > 100 µM
UO-31 renal
  TGI: > 100 µM
